Laboratory results from US8314103B2, “Pyridyl derivatives, their preparation and use” (Piramal Enterprises Limited, priority 2007, dated 2012).

Experiments:
HIF-1α = HIF-1α assay (luciferase reporter gene, U251 HRE / U251 pGL3 cells); type: cell-based, human; settings: SI greater than 4 indicates specificity towards HIF-1α inhibition under hypoxia conditions
mTOR = molecular target: T1, mTOR (Homo sapiens, UniProt P42345); assay: Cell based mTOR assay; settings: IGF-I induced AKT/p70S6K1 phosphorylation; read-out: Inhibition of mTOR (cell-based): IC50
T1 construct: endogenous in cells
Description: The mTOR assay was designed as given in Biochem J., 2000, 350, 717-722 with modifications as described below.
Cells were seeded in a 96 well microtitre plate at a density of 50,000 cells/cm^2 in appropriate complete cell culture medium. The cells were allowed to adhere for 18-24 hours. The cells were pretreated (in triplicates) with the test compound at a concentration of 10 μM for 30 minutes followed by induction with 400 ng/ml IGF-I for 24 hours (to induce AKT and p70S6K1 phosphorylation). A typical assay would consist of a set of unstimulated well, a set of stimulated and a set each of wells treated with compound and the stimulator. The medium was discarded. The cells were fixed with 100 μl of 3.7% formaldehyde for 15 minutes. The formaldehyde was discarded by inverting the plate and tapping it on a thick tissue paper layer to remove traces. The cells were washed and permeabilized with 200 μL PBS-Triton solution (containing 0.1% triton-X 100 in 1× PBS) three times, incubating the cells each time for 5 minutes. 100 μL blocking solution (10% FCS in PBS-Triton) was added and incubated for 1 hour at room temperature. The blocking solution was discarded and cells were incubated with the primary antibody in PBS-Triton at a dilution of 1:500 for 1 hour at room temperature. [The primary antibody is Phospho-AKT (Ser 473); Cell Signaling; Cat. No. 9271; Phospho p70S6K1 (Thr 389), Cell Signaling, Cat. No. 9205]. The primary antibody solution was discarded and the cells were washed 3 times with PBS-Triton solution and incubated with the HRP-conjugated secondary antibody in PBS-Triton at a dilution of 1:500 for 1 hour at room temperature. The cells were washed 3 times with PBS-Triton followed by two washes with PBS (to remove traces of triton-X 100). The OPD (o-phenylene diamine dihydrochloride) substrate was prepared for detection of the signal by dissolving one tablet set (two tablets) of SigmaFast OPD (Sigma, Cat No. P9187) in 20 mL distilled water, and was protected from light. 100 μL OPD solution was added to the wells and the plate was incubated in the dark for 3-5 minutes (depending upon the development of the colour). The reaction was stopped by adding 50 μL 2 N sulphuric acid (H2SO4). The absorbance was measured at 490 nm. The values were expressed in the treated samples, in terms of percentage or fold decrease in AKT/p70 phosphorylation with respect to the induced sample.

Cytotoxicity assay (MTS) = type: cell-based; settings: human, panel of HIF over expressing cell lines, average across a panel of HIF overexpressing cell lines, read-out: Cytotoxic Potential (MTS/PI), average IC50
Description: Cytotoxicity and Anti-proliferative Assay
Cytotoxic potential of compounds of the present invention was tested using various HIF over expressing cell lines (source and culture conditions as described in Table-1 herein above). Cells were seeded at a density of 3000-5000 cells per well in 180 μL volume in transparent 96 well tissue culture plate (NUNC, USA) and incubated for 12-18 hours at 37° C., 5% CO2. Subsequently, 20 μL of compounds of present invention (diluted in medium at concentrations ranging from 30 μM, 10 μM, 3 μM, 1 μM, 0.3 μM or 0.1 μM) were added to each well. Cells were then incubated for 48 hours at 37° C., 5% CO2. Following the incubation, 20 μL of MTS solution with PMS (Promega) was added in each well. After 4 hours incubation, the absorbance of the fluid in each well was determined at 490 nm using a microwell plate spectrophotometer reader (Molecular Devices, Sunnyvale, Calif., USA). In every experiment, each condition was run in triplicate wells.

[1] = system: HIF overexpressing cell lines; assay: Anti-proliferative assay (3H-Thymidine incorporation); type: cell-based; settings: Homo sapiens; average across a panel of HIF overexpressing cell lines; 48 hours; read-out: Anti Proliferative Potential (3H-Thymidine), average IC50
Description: The anti-proliferative potential of compounds of present invention across a panel of cancer cell lines as described herein above was determined using ^3H-Thymidine incorporation. […] Cells were seeded at a density of 3000-5000 cells per well in 180 μL volume in transparent 96 well tissue culture plate (NUNC, USA) and incubated for 12-18 hours at 37° C., 5% CO2. Subsequently, 20 μL of compounds of present invention (diluted in medium at concentrations ranging from 30 μM, 10 μM, 3 μM, 1 μM, 0.3 μM or 0.1 μM) were added to each well. Cells were then incubated for 48 hours at 37° C., 5% CO2 After the incubation, all the medium from the plates was aspirated and ^3H-Thymidine was added to all wells at a concentration of 0.25 μCi/well in 200 μL it complete medium (RPMI with 10% FBS). Plates were incubated at 37° C., 5% CO2 for further 6-14 hours. Following this incubation period, cells from 96 well plates were harvested with the help of cell harvester (Packard, USA) on a 96 well glass-filter plate (Unifilter-96, GF/B, Packard, USA). The filter plates were dried completely at 60° C. for 1 hour or overnight at room temperature. After drying, the bottom of the plates was sealed with bottom seals and 0.05 mL/well of scintillate fluid was added per well (Microscint-O, Packard). The plates were sealed from the top, read on Scintillation counter (TopCount, Packard) and percent inhibition and IC50 were calculated.

PI3Kα kinase = PI3Kα kinase (Homo sapiens, UniProt P42336); assay: PI3Kα kinase assay; type: biochemical; settings: 10 μM ATP; read-out: Inhibition of PI3Kα (kinase): IC50
Description: The PI3K kinase assay was designed as given in Cell, 2006, 125, 733-747.
The kinase reaction was carried out in a 25 μL reaction in a 1.5 ml microcentrifuge tube. The reaction mixture consisted of kinase buffer (10 mM Hepes, pH 7.5, 50 mM MgCl2), 20 ng PI3Kα kinase, 12.5 μg phosphotidylinositol (PI), 10 μM adenosine triphosphate (ATP) and 1 μCi 32γP […]. The compounds of the present invention were added at appropriate concentrations. The reactions were incubated at 30° C. for 20 minutes and were stopped by adding 1:1 mixture of methanol and chloroform. The tube contents were mixed on a vortex mixer and centrifuged at 10000 rpm for 2 minutes. 10 μL of the organic (lower) phase was spotted on to a thin layer chromatography (TLC) plate. The spots were resolved in a mobile phase consisting of a 65:35 mixture of n-propanol and 2 M glacial acetic acid. The plates were dried and exposed to an X-ray film. The bands appearing as a result of 32 g P incorporation in PI were quantitated using the QuantityOne (BioRad) densitometry program.

Sequence of PI3Kα kinase (P42336 whole entry): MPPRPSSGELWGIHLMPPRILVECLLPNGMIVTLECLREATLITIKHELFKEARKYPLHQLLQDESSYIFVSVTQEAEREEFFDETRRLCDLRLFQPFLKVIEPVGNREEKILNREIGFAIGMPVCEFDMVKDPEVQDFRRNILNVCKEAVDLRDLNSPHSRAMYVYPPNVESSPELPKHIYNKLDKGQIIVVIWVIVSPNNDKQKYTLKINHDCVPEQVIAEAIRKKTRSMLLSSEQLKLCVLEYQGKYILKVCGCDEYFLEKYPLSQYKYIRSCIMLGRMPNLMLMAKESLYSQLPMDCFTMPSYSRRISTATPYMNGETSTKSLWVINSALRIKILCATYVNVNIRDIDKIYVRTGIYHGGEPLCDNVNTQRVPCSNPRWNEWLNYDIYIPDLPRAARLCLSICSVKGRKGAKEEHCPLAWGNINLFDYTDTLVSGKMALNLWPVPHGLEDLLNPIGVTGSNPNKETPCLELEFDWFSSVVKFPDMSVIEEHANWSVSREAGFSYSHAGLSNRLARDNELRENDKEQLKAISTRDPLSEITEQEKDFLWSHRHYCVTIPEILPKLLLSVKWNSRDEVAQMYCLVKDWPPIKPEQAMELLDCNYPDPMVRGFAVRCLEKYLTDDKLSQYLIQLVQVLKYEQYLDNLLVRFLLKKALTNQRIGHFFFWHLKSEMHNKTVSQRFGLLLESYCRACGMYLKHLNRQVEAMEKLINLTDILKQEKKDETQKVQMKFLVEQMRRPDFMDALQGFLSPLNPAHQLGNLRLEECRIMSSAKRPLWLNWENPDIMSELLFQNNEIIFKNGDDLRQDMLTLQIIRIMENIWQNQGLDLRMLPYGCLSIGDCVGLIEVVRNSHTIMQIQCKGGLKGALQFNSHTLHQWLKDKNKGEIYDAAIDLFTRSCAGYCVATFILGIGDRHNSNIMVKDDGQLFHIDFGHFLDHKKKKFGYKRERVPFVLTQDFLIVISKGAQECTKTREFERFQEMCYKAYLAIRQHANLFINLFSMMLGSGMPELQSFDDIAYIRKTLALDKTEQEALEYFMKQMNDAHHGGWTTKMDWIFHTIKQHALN
Sequence of PI3Kα kinase (P27986 whole entry partner): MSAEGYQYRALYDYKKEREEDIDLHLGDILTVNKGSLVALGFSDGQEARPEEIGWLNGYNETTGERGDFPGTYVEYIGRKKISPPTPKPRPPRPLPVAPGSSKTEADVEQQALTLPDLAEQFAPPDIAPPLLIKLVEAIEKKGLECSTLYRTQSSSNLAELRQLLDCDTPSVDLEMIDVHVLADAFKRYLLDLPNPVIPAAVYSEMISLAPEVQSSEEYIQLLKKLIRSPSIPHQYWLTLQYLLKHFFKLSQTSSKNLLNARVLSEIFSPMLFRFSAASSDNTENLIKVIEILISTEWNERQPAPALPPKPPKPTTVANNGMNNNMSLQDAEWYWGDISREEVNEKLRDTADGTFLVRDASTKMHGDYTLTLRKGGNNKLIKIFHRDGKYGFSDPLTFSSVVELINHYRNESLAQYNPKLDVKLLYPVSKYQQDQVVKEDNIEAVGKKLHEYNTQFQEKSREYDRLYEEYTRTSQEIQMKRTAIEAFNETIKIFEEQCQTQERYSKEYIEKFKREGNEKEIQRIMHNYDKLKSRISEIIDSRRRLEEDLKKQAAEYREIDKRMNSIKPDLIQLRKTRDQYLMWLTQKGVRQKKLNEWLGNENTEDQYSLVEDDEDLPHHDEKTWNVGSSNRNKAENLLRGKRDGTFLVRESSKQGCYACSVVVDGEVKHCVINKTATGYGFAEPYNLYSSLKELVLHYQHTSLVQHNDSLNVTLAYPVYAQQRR

| IC50 (mTOR) | IC50 (PI3Kα kinase) | SMILES | Specificity Index (HIF-1α) | IC50 at 48 h (Cytotoxicity assay (MTS)) | IC50 [1] |
| --- | --- | --- | --- | --- | --- |
| 5000 nM | – | NC(=NO)c1ccc(NC(=O)CCl)cn1 [Example 4, 2-Chloro-N-(6-(N′-hydroxycarbamimidoyl)pyridin-3-yl)acetamide] | >20 | 2200 ± 300 nM | 2000 ± 500 nM |
| – | – | O=C(CCl)Nc1ccc(-c2noc(C(F)(F)F)n2)nc1 [Example 29, 2-Chloro-N-[6-(5-(trifluoromethyl)-1,2,4-oxadiazol-3-yl)pyridin-3-yl]acetamide] | >9 | 3500 ± 500 nM | 1500 ± 400 nM |
| – | – | Cc1nc(-c2ccc(NC(=O)CCl)cn2)no1 [Example 30, 2-Chloro-N-[6-(5-methyl-1,2,4-oxadiazol-3-yl)pyridin-3-yl]acetamide] | >11 | 3000 ± 500 nM | 1500 ± 200 nM |
| – | – | O=C(CCl)Nc1ccc(-c2noc(C(F)(F)Cl)n2)nc1 [Example 41a, 2-Chloro-N-[6-(5-(chlorodifluoromethyl)-1,2,4-oxadiazol-3-yl)pyridin-3-yl]acetamide] | >10 | 3500 ± 1000 nM | – |
| – | – | O=C(CCl)Nc1ccc(-c2nc(O)cc(C(F)(F)F)n2)nc1 [Example 53, 2-Chloro-N-(6-(4-hydroxy-6-(trifluoromethyl)pyrimidin-2-yl)pyridin-3-yl)acetamide] | >7 | 2000 ± 500 nM | 2000 ± 300 nM |
| 5000 nM | 1500 nM | C=CCOc1cc(C(F)(F)F)nc(-c2ccc(NC(=O)CCl)cn2)n1 [Example 60, N-(6-(4-(allyloxy)-6-(trifluoromethyl)pyrimidin-2-yl)pyridin-3yl-)-2-chloroacetamide] | >15 | 2000 ± 200 nM | 800 ± 200 nM |
| 5000 nM | 1000 nM | COc1cc(C(F)(F)F)nc(-c2ccc(NC(=O)CCl)cn2)n1 [Example 61, 2-Chloro-N-(6-(4-methoxy-6-(trifluoromethyl)pyrimidin-2-yl)pyridin-3yl)acetamide] | – | 3000 ± 200 nM | – |
| 5000 nM | < 1000 nM | C=CCOc1nc(-c2ccc(NC(=O)CCl)cn2)nc(C)c1CC [Example 64, N-(6-(4-(allyloxy)-5-ethyl-6-methylpyrimidin-2-yl)pyridin-3yl)-2-chloroacetamide] | – | 1500 ± 200 nM | 1000 ± 200 nM |
| – | – | O=C(CCl)Nc1ccc(-c2nc(Cl)cc(C(F)(F)F)n2)nc1 [Example 71, 2-Chloro-N-(6-(4-chloro-6-(trifluoromethyl)pyrimidin-2-yl)pyridin-3-yl)acetamide] | >6 | 1000 ± 200 nM | 800 ± 200 nM |
